Assay results taken from patent US9650361B2, “N-(pyridin-2-yl)pyrimidin-4-amine derivatives containing a sulfoximine group” (BAYER PHARAM AKTIENGESELLSCHAFT, priority 2012, dated 2017).
Like-named read-outs stand apart in the source and are kept apart here.

What was measured:
CDK2/CycE = target: T1, CDK2/CycE (Homo sapiens, UniProt P24941); test: CDK2/CycE kinase assay (Method 2a); type: biochemical; details: 10 μM ATP
T1 construct: GST; purchased ProQinase GmbH (Freiburg, Germany); host or cells: insect cells (Sf9)
From the text: 2a. CDK2/CycE Kinase Assay:
CDK2/CycE-inhibitory activity of compounds of the present invention was quantified employing the CDK2/CycE TR-FRET assay as described in the following paragraphs:
Recombinant fusion proteins of GST and human CDK2 and of GST and human CycE, expressed in insect cells (Sf9) and purified by Glutathion-Sepharose affinity chromatography, were purchased from ProQinase GmbH (Freiburg, Germany) As substrate for the kinase reaction biotinylated peptide biotin-Ttds-YISPLKSPYKISEG (C-terminus in amid form) was used which can be purchased e.g. form the company JERINI Peptide Technologies (Berlin, Germany).
For the assay 50 nl of a 100 fold concentrated solution of the test compound in DMSO was pipetted into a black low volume 384 well microtiter plate (Greiner Bio-One, Frickenhausen, Germany), 2 μl of a solution of CDK2/CycE in aqueous assay buffer [50 mM Tris/HCl pH 8.0, 10 mM MgCl2, 1.0 mM dithiothreitol, 0.1 mM sodium ortho-vanadate, 0.01% (v/v) Nonidet-P40 (Sigma)] were added and the mixture was incubated for 15 min at 22° C. to allow pre-binding of the test compounds to the enzyme before the start of the kinase reaction. Then the kinase reaction was started by the addition of 3 μl of a solution of adenosine-tri-phosphate (ATP, 16.7 μM=>final conc. in the 5 μl assay volume is 10 μM) and substrate (1.25 μM=>final conc. in the 5 μl assay volume is 0.75 μM) in assay buffer and the resulting mixture was incubated for a reaction time of 25 min at 22° C. The concentration of CDK2/CycE was adjusted depending of the activity of the enzyme lot and was chosen appropriate to have the assay in the linear range, typical concentrations were in the range of 130 ng/ml. The reaction was stopped by the addition of 5 μl of a solution of TR-FRET detection reagents (0.2 μM streptavidine-XL665 [Cisbio Bioassays, Codolet, France] and 1 nM anti-RB(pSer807/pSer811)-antibody from BD Pharmingen [#558389] and 1.2 nM LANCE EU-W1024 labeled anti-mouse IgG antibody [Perkin-Elmer, product no. AD0077]) in an aqueous EDTA-solution (100 mM EDTA, 0.2% (w/v) bovine serum albumin in 100 mM HEPES/NaOH pH 7.0).
The resulting mixture was incubated 1 h at 22° C. to allow the formation of complex between the phosphorylated biotinylated peptide and the detection reagents. Subsequently the amount of phosphorylated substrate was evaluated by measurement of the resonance energy transfer from the Eu-chelate to the streptavidine-XL. Therefore, the fluorescence emissions at 620 nm and 665 nm after excitation at 350 nm was measured in a TR-FRET reader, e.g. a Rubystar (BMG Labtechnologies, Offenburg, Germany) or a Viewlux (Perkin-Elmer). The ratio of the emissions at 665 nm and at […] was taken as the measure for the amount of phosphorylated substrate. The data were normalised (enzyme reaction without inhibitor=0% inhibition, all other assay components but no enzyme=100% inhibition).

DU145 cells = test: Proliferation assay, DU145 (Method 3); type: cell-based, human; details: 4 days, crystal violet, read-out: Inhibition of DU145 cell proliferation IC50
Experimental: Cultivated tumour cells (HeLa, human cervical tumour cells, ATCC CCL-2; NCI-H460, human non-small cell lung carcinoma cells, ATCC HTB-177; A2780, human ovarian carcinoma cells, ECACC #93112519; DU 145, hormone-independent human prostate carcinoma cells, ATCC HTB-81; HeLa-MaTu-ADR, multidrug-resistant human cervical carcinoma cells, EPO-GmbH Berlin; Caco-2, human colorectal carcinoma cells, ATCC HTB-37; B16F10, mouse melanoma cells, ATCC CRL-6475) were plated at a density of 5,000 cells/well (DU145, HeLa-MaTu-ADR), 3,000 cells/well (NCI-H460, HeLa), 2,500 cells/well (A2780), 1,500 cells/well (Caco-2), or 1,000 cells/well (B16F10) in a 96-well multititer plate in 200 μL of their respective growth medium supplemented 10% fetal calf serum. After 24 hours, the cells of one plate (zero-point plate) were stained with crystal violet (see below), while the medium of the other plates was replaced by fresh culture medium (200 μl), to which the test substances were added in various concentrations (0 μM, as well as in the range of 0.001-10 μM; the final concentration of the solvent dimethyl sulfoxide was 0.5%). The cells were incubated for 4 days in the presence of test substances. Cell proliferation was determined by staining the cells with crystal violet: the cells were fixed by adding 20 μl/measuring point of an 11% glutaric aldehyde solution for 15 minutes at room temperature. After three washing cycles of the fixed cells with water, the plates were dried at room temperature. The cells were stained by adding 100 μl/measuring point of a 0.1% crystal violet solution (pH 3.0). After three washing cycles of the stained cells with water, the plates were dried at room temperature. The dye was dissolved by adding 100 μl/measuring point of a 10% acetic acid solution. The extinction was determined by photometry at a wavelength of 595 nm. The change of cell number, in percent, was calculated by normalization of the measured values to the extinction values of the zero-point plate (=0%) and the extinction of the untreated (0 μm) cells (=100%). The IC50 values (inhibitory concentration at 50% of maximal effect) were determined by means of a 4 parameter fit.

IC50 (CDK2/CycE) | IC50 (DU145 cells; Homo sapiens, DU-145, 96 h) | IC50 (DU145 cells) | Compound
600 nM | 309 nM |  | COc1cc(F)ccc1-c1cc(Nc2cc(CS(C)(=N)=O)ccn2)ncn1 (racemic) [Example 1, (rac)-6-(4-Fluoro-2-methoxyphenyl)-N-{4-[(S-methylsulfonimidoyl)methyl]pyridin-2-yl}pyrimidin-4-amine]
160 nM | 77 nM |  | COc1cc(F)ccc1-c1cc(Nc2cc(CS(C)(=N)=O)cc(Cl)n2)ncn1 (racemic) [Example 4, (rac)-N-{6-Chloro-4-[(S-methylsulfonimidoyl)methyl]pyridin-2-yl}-6-(4-fluoro-2-methoxyphenyl)pyrimidin-4-amine]
280 nM | 121 nM |  | COc1cc(F)ccc1-c1cc(Nc2cc(CS(C)(=N)=O)cc(C)n2)ncn1 (racemic) [Example 7, (rac)-6-(4-Fluoro-2-methoxyphenyl)-N-{6-methyl-4-[(S-methylsulfonimidoyl)methyl]pyridin-2-yl}pyrimidin-4-amine]
63 nM | 88 nM |  | COc1cc(F)ccc1-c1cc(Nc2cc(CS(C)(=N)=O)cc(C(F)(F)F)n2)ncn1 (racemic) [Example 10, (rac)-6-(4-Fluoro-2-methoxyphenyl)-N-{4-[(S-methylsulfonimidoyl)methyl]-6-(trifluoromethyl)pyridin-2-yl}pyrimidin-4-amine]
1300 nM |  |  | COc1cc(F)ccc1-c1cc(Nc2cc(CS(C)(=N)=O)ccn2)ncn1 (single isomer, unassigned) [Example 2, 6-(4-Fluoro-2-methoxyphenyl)-N-{4-[(S-methylsulfonimidoyl)methyl]pyridin-2-yl}pyrimidin-4-amine]
660 nM |  |  | COc1cc(F)ccc1-c1cc(Nc2cc(CS(C)(=N)=O)ccn2)ncn1 (single isomer, unassigned) [Example 3, 6-(4-Fluoro-2-methoxyphenyl)-N-{4-[(S-methylsulfonimidoyl)methyl]pyridin-2-yl}pyrimidin-4-amine]
56 nM | 105 nM |  | COc1cc(F)ccc1-c1cc(Nc2cc(CS(C)(=N)=O)cc(Cl)n2)ncn1 (single isomer, unassigned) [Example 5, N-{6-Chloro-4-[(S-methylsulfonimidoyl)methyl]pyridin-2-yl}-6-(4-fluoro-2-methoxyphenyl)pyrimidin-4-amine]
94 nM |  | 110 nM | COc1cc(F)ccc1-c1cc(Nc2cc(CS(C)(=N)=O)cc(Cl)n2)ncn1 (single isomer, unassigned) [Example 6, N-{6-Chloro-4-[(S-methylsulfonimidoyl)methyl]pyridin-2-yl}-6-(4-fluoro-2-methoxyphenyl)pyrimidin-4-amine]
400 nM | 179 nM |  | COc1cc(F)ccc1-c1cc(Nc2cc(CS(C)(=N)=O)cc(C)n2)ncn1 (single isomer, unassigned) [Example 8, 6-(4-Fluoro-2-methoxyphenyl)-N-{6-methyl-4-[(S-methylsulfonimidoyl)methyl]pyridin-2-yl}pyrimidin-4-amine]
330 nM |  | 126 nM | COc1cc(F)ccc1-c1cc(Nc2cc(CS(C)(=N)=O)cc(C)n2)ncn1 (single isomer, unassigned) [Example 9, 6-(4-Fluoro-2-methoxyphenyl)-N-{6-methyl-4-[(S-methylsulfonimidoyl)methyl]pyridin-2-yl}pyrimidin-4-amine]
